Assay results as given in publication PMC6935685 (Pharmacology Research & Perspectives, 2019).
“And” between values parts separate entries of the source, which are not always exact repeats. Equal entries are not always repeated. Where two headings read alike, the source gives them in different places.

How the values were obtained:
[1] = target: T1, human MT2 (hMT2) (Homo sapiens, UniProt P49286); assay: 2-[125I]-iodomelatonin competition binding, CHO-K1 membranes
T1 sequence (P49286 1-362): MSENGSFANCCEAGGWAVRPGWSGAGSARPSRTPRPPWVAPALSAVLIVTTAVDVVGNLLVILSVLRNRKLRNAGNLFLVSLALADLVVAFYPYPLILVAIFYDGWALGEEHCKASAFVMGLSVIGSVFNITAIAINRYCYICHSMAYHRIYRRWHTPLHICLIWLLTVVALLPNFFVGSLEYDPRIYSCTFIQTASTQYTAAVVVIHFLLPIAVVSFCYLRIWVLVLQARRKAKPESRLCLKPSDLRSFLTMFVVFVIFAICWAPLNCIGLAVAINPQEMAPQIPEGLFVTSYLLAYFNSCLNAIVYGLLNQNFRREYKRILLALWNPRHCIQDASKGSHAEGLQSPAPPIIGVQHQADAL

[2] = target: T2, MT1 (Homo sapiens, UniProt P48039); assay: Cellular dielectric spectroscopy; assay type: cell-based; details: MT1
T2 sequence (P48039 whole entry): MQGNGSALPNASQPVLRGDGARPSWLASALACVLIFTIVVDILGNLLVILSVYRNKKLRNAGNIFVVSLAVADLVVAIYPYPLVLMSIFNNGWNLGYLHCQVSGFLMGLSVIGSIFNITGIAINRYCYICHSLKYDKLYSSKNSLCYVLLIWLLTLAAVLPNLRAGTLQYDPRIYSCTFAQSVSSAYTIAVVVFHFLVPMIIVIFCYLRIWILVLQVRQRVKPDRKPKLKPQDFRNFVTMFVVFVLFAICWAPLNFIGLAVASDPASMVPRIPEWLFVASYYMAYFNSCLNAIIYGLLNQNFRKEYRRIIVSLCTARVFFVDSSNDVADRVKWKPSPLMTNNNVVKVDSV

[3] = target: T3, MT2 (Homo sapiens, UniProt P49286); assay: Overall functionality from the signaling pathway panel
T3 sequence (P49286 1-362): T1 sequence (P49286 1-362)

[4] = target: T2, MT1; assay: as above
[5] = target: T4, human MT1 (hMT1) (Homo sapiens, UniProt P48039); assay: 2-[125I]-iodomelatonin competition binding, CHO-K1 membranes
T4 sequence (P48039 whole entry): as above

[6] = target: T2, MT1; assay: Receptor internalization, DLD-1 cells; assay type: cell-based
[7] = target: T4, human MT1 (hMT1); assay: [35S]-GTPγS binding, antagonist mode GTPγS; assay type: biochemical
[8] = target: T3, MT2; assay: Cellular dielectric spectroscopy; assay type: cell-based; details: MT2
[9] = target: T1, human MT2 (hMT2); assay: [35S]-GTPγS binding, agonist mode GTPγS; assay type: biochemical
[10] = target: T2, MT1; assay: β-arrestin recruitment, PathHunter CHO-K1 cells; assay type: cell-based
[11] = target: T3, MT2; assay: Receptor internalization, U2O-S cells; assay type: cell-based; details: for receptor internalization: MT2
[12] = target: T3, MT2; assay: HTRF cAMP assay, agonist mode cAMP; assay type: cell-based; details: for Emax, cAMP (+): hMT2, inhibition of cAMP production, normalization vs melatonin
[13] = target: T2, MT1; assay: HTRF cAMP assay, agonist mode cAMP; assay type: cell-based; details: inhibition of cAMP production, normalization vs melatonin
[14] = target: T1, human MT2 (hMT2); assay: [35S]-GTPγS binding, antagonist mode GTPγS; assay type: biochemical
[15] = target: T4, human MT1 (hMT1); assay: [35S]-GTPγS binding, agonist mode GTPγS; assay type: biochemical
[16] = target: T3, MT2; assay: HTRF cAMP assay, antagonist mode cAMP; assay type: cell-based
[17] = target: T3, MT2; assay: β-arrestin recruitment, PathHunter CHO-K1 cells; assay type: cell-based
[18] = MT1 Affinity (pKi), against 2-[125I]iodomelatonin

| Compound | Ki [1] | MT2 Our data (functionality) [3] | MT1 Our data (functionality) [4] | Ki [5, 18] | receptor internalization [11] | also measured |
| --- | --- | --- | --- | --- | --- | --- |
| COc1ccc2[nH]cc(CCNC(C)=O)c2c1I [SD1882, N‐[2‐(4‐iodo‐5‐methoxy‐1H‐indol‐3‐yl)ethyl] acetamide] | 10.2 nM | ago | partial ago | 17.4 nM | – | concentration of maximal effect (CellKey) [2]: ~100 nmol/L |
| O=C(NCCc1cccc2ccccc12)C1CCC1 [S20928, (N‐[2‐(1‐naphthyl)ethyl]cyclobutanecarboxamide)] | – | – | – | 170 nM | does not induce internalization | receptor internalization [6]: does not induce internalization; inhibition of melatonin-induced GTPγS binding [7]: fully inhibits; concentration of maximal effect (CellKey) [8]: ~100 nmol/L; cell shape shift, CellKey [2]: failed to elicit any significant shift in shape; induction of GTPγS binding [9]: induces the binding of GTPγS; β-arrestin recruitment [10]: capacity to recruit; Emax, cAMP (+) [12]: 50%; Emax, cAMP (+) [13]: less than 25%; inhibition of melatonin-induced GTPγS binding [14]: slightly inhibits |
| COc1cc2c(CCNC(C)=O)c(I)[nH]c2cc1[N+](=O)[O-] [S27128, N‐[2‐(2‐iodo‐5‐methoxy‐6‐nitro‐1H‐indol‐3‐yl)ethyl]acetamide] | – | agonists and ago | agonists and ago | 1.2 nM | exhibited subsequent internalization | receptor internalization [6]: exhibited subsequent internalization |
| CCC(=O)NC1Cc2ccccc2C(c2ccccc2)C1 (centres unmarked) [4P‐PDOT, 4‐phenyl‐2‐propionamidotetraline, reference compound] | 1.07 nM | partial ago | partial ago | 141 nM | – | induction of GTPγS binding [15]: does not induce GTPγS binding; antagonism in cAMP assay ([16]; MT2): completely inactive; Emax, cAMP (+) [12]: ~90% and 100%; EC50 ([12]; pEC50, cAMP production inhibition, MT2, text): 2 nM; Ki ([5]; affinity for MT1, order of magnitude given in text): ~100 nM |
| COc1ccc2cccc(C(CO)CNC(=O)CF)c2c1 (centres unmarked) [S75436, 2‐fluoro‐N‐[3‐hydroxy‐2‐(7‐methoxy‐1‐naphthyl)propyl]acetamide] | 1.12 nM | agonists and ago | agonists and ago | – | – | Ki [5]: 9.12 nM |
| COc1cc2c(CCNC(C)=O)c[nH]c2cc1I [SD1881, N‐[2‐(6‐iodo‐5‐methoxy‐1H‐indol‐3‐yl)ethyl]acetamide] | 2.45 nM | agonists and ago | agonists and ago | 1.45 nM | – | – |
| COc1cc(I)c2[nH]cc(CCNC(C)=O)c2c1 [SD1918, N‐[2‐(7‐iodo‐5‐methoxy‐1H‐indol‐3‐yl)ethyl]acetamide] | 47.9 nM | ago | partial ago | 45.7 nM | – | – |
| CCc1ccc2scc(CCNC(C)=O)c2c1 [S22153, N‐[2‐(5‐ethylbenzothiophen‐3‐yl)ethyl]acetamide] | 7.94 nM | ago | partial ago | 9.77 nM | – | – |
| COc1ccc2[nH]cc(CCNC(=O)CI)c2c1 [SD6, N‐[2‐(5‐methoxy‐1H‐indol‐3‐yl)ethyl] iodoacetamide] | – | agonists and ago | agonists and ago | – | – | – |
| COCC(CNC(C)=O)c1cccc2ccc(OC)cc12 (centres unmarked) [S73893, N‐[3‐methoxy‐2‐(7methoxy‐ 1‐naphthyl)propyl]acetamide] | 7.76 nM | – | partial ago | 4.37 nM | – | – |
| COc1ccc2c(c1)C(CNC(N)=O)Cc1ccccc1C2 (centres unmarked) [S77840, 1‐[(8‐methoxy‐10,11‐dihydro‐5H‐dibenzo[a,d]‐[7]annulen‐10‐yl)methyl]urea] | – | – | – | – | lack of capacity to provoke internalization | receptor internalization [6]: lack of capacity to provoke internalization; cell shape shift, CellKey [8]: failed to elicit any significant shift in shape |
| COc1ccc2ncn(CCNC(C)=O)c2c1 [S21278, N‐[2‐(6‐methoxy‐benzimidazol‐1‐yl)ethyl]acetamide] | 603 nM | agonists and ago | agonists | 603 nM | not enough to elicit internalization | β-arrestin recruitment [10]: complete recruitment |
| COc1ccc2[nH]cc(CCNC(C)=O)c2c1 [Melatonin, N‐acetyl‐5‐methoxytryptamine, reference compound] | – | – | ago | – | – | – |
| COc1ccc2cccc(CCNC(C)=O)c2c1 [Agomelatine, N‐[2‐(7‐methoxynaphthalen‐1‐yl)ethyl]acetamide, reference compound] | – | ago | ago | – | – | MT2 Our data (functionality) ([3]; listed as S20098): agonists; MT1 Our data (functionality) ([4]; listed as S20098): agonists |
| methoxyverapamil [D600, reference compound] | – | – | antago | – | did not induce | receptor internalization [6]: did not induce; β-arrestin recruitment [17]: did not induce; MT2 Affinity (pKi) ([1]; against 2-[125I]iodomelatonin): <6; β-arrestin recruitment [10]: did not induce; MT1 Affinity (pKi) ([5]; against 2-[125I]iodomelatonin): 7 and 7.04 |
| CC(=O)NCCc1c(Cc2ccccc2)[nH]c2ccccc12 [Luzindole, N‐acetyl‐2‐benzyltryptamine, reference compound] | – | partial ago | antago | 257 nM | induces the internalization | β-arrestin recruitment [17]: does not recruit; EC50 [11]: ~10 nM; Emax ([16]; read-out: Emax, cAMP (−)): 55%; Emax, cAMP (+) [12]: 70% |
